Measured values published in US20150141506A1, “INDANE DIMERS FOR USE IN THE TREATMENT OF AUTOIMMUNE INFLAMMATORY DISEASE” (Venantius Limited, priority 2012, published 2015).
Converted amounts (≈) assume the structure as drawn. “Also recorded” adds a separate entry of the source. Like-named read-outs stand apart in the source and are kept apart here.

Columns and labels:
[1] = test system: IL2 release from Jurkat cells; experiment: Effect of compounds on IL-2 secretion in T lymphocytes (Jurkat 6.1, anti-CD3/anti-CD28 stimulated, ELISA); type: cell-based; details: 30 min pre-treatment, 24 h, DMSO control 320.67 (plate 2), 338.25 (plate 3)
Experimental: The T cell line Jurkat 6.1 (ATCC) was used. Cells were pre-treated for 30 min with 1 μM or 10 μM of the respective compound and then stimulated with plate-bound anti-CD3 (BD Pharmingen) and anti-CD28 (AnCell). DMSO was used as vehicle control. […] After 24 hs the supernatant was collected and IL-2 secretion was measured by ELISA.
Compounds were prepared by dissolution in DMSO to yield final concentrations of 1 and 10 μg/ml

[2] = test system: 5% DSS colitis in BDF 1 mice; experiment: 5% DSS murine colitis, Experiment 2 (Method 2); type: in vivo; details: day 7, 10 ml/kg oral gavage daily day 0-6, 5-ASA 100 mg/kg; for DAI versus vehicle: 31 at 2 mg/ml, 47 at 4 mg/ml
From the text: A total of 90 BDF 1 (H. Pylori-free, murine norovirus-free) male mice (Harlan Laboratories, UK) were used in the study. Animals were 8-10 weeks old on supply and used at 10-12 weeks of age. All mice were held in individually ventilated cages (IVCs) in an SPF (Specific Pathogen Free) barrier unit. The animals were identified by numbered cages and by ear punches.
Mice were randomised into study groups. All the mice in any one cage received the same treatment and were ear punched for identification purposes. Daily body weight measurements were used to calculate the volume of test item or vehicle administered in the applicable groups.
DSS (MP Biomedicals 0216011090, lot# M2709) was prepared as a 5% (w/v) solution in the drinking water and made fresh daily on days 0 to 6 inclusive. DSS was administered from day 0 to day 7.
Test items were stored at −20° C. until the initiation of the study. Each test item was formulated as a homogenous suspension in 0.5% carboxymethyl cellulose (CMC, Sigma C4888) in sterile water (Sigma W3500, lot# RNBC1419), using an Ultraturax homogeniser, on study day −1. Compound 31 was formulated at 2 mg/ml and 47 was formulated at 4 mg/ml. After formulation the test item and the vehicle stocks anonymised with a letter code. All solutions were stored at 4° C. during the study, with 3.8 ml of each suspension being dispensed daily. Test items were administered by oral gavage, daily at 09.00 hrs, at 10 ml/kg, from study day 0 to study day 6.
5-ASA (5-Aminosalicylic acid, Sigma A3537, lot#051M1878V) was aliquoted into pre-weighed amounts between 71 and 84 mg. Like test item suspensions, these aliquots were anonymised by a letter code. […]
Any animal was culled if the weight loss was greater than 20%. Animal well-being was monitored daily. Once daily from day 0 until the end of the study, all mice were weighed and assessed for stool consistency, and the presence of overt blood in the stool or around the anus according to the criteria in 2.1 […]

[3] = test system: 5% DSS colitis in BALB/c mice; experiment: Acute murine 5% DSS colitis model, Experiment 1; type: in vivo
From the text: The study is widely used as a model for studying the pathogenesis of UC and also for screening new therapeutic interventions for the treatment of UC.
In these studies, an acute colitis model was used, with 5% DSS administered in the drinking water of BALB/c mice. This dosage regime induces severe acute colitis, by days 7-8 mice had overt rectal bleeding and marked weight loss; unless sacrificed beforehand, all mice would have died by days 10-12.
Specific Pathogen-Free BALB/c mice, 6-8 weeks of age, were obtained from a commercial supplier (Harlan UK). Mice were fed irradiated diet and housed in individually ventilated cages (Tecniplast UK) under positive pressure.
DSS (5%) was dissolved in drinking water. Compounds were administered orally at a dose of 10 mg/kg or 30 mg/kg on days 0-7, and mice were culled on day 8 or day 9, depending on the severity of the disease. The mice were checked each day for morbidity and the weight of individual mice was recorded. Induction of colitis was determined upon autopsy, length of colon and histology. Colons were recovered and stored at −20° C. for immunological analysis. All of the compounds and experimental groups are randomly alphabetically labelled. Throughout experiments all data recording was performed in a blind manner. The codes on boxes/groups were not broken until after the data was analysed i.e. boxes labelled A, B, C etc were identified as untreated, DSS-treated, or DSS+compound-treated.
To quantify the extent of colitis, a disease activity index (DAI) was determined based on weight loss, faecal blood and stool consistency. A score was given for each parameter, with the sum of the scores used as the DAI. For each treatment group n=8.
All compounds were prepared for oral gavage (0.1 mL per os (p.o.) per 10 g body weight) as a suspension in 0.5% carboxymethyl cellulose/2% Tween 80, at a dose of 3-30 mg/Kg.

[4] = Solubility in Milli-RO water and pH buffers; type: physicochemical
Experimental: The sodium salt, potassium salt, calcium salt, α-methylbenzylamine salt and N-Methyl-(D)-Glucamine salt were synthesised.
The solubility of the four compounds were determined: […]

[5] = Partition coefficient (Log10 POW) by HPLC method; type: physicochemical; details: reverse phase C18 HPLC; for Log10 POW, Acid: acidic pH; for Log10 POW, Basic: alkaline pH; for Log10 POW, Neutral: neutral pH
[6] = test system: chronic colitis in IL10-/- BALB/c strain mice; experiment: Chronic IL10-/- colitis model; type: in vivo; details: MWF
Experimental: FIG. 15: Is a group showing weight loss in IL10^−−/−− mice treated with vehicle or compound 6. Mice were administered compound 6 (300 mg/kg/week) or vehicle orally on a Monday/Wednesday/Friday (MWF) dosing schedule. Mice were ˜4 weeks of age at start of experiment and were treated for 9 weeks. Mice were weighed weekly and data are presented as Mean±SEM from 9-12 mice per group. Mice were monitored for overt disease, rectal prolapse, and moribund animals were humanely killed;
Mice with a deletion in the IL10^−−/−− gene spontaneously develop chronic colitis, with the age of onset and the severity of the disease being dependent on background mouse strain and the conditions in which the animals are housed. The onset of colitis in IL10^−−/−− mice housed under the conditions used in this study was also strain dependent, with an earlier onset and greater severity, in terms of mortality, in BALB/c strain mice relative to C57BL/6 strain animals. In this experiment, animals received oral treatment on a MWF regime over 9 weeks. Initially, both groups of mice progressively gain weight (FIG. 15). […] By week 9 animals had marked weight loss, with one moribund animal humanely killed on day 60 in each group. As other mice were losing weight and developing clinical symptoms of disease, both groups were culled at week 9 (day 63) and analysed.

[7] = Plasma half-life in the rat; type: in vivo; details: read-out: plasma half-life (t1/2) (converted)
[8] = day 7, 10 mg/kg daily for 7 days, vehicle 9.3±0.51
[9] = Milli-RO water, water, read-out: solubility, Milli-RO H20
[10] = pH 4.0 buffer, pH 4, aqueous buffer, read-out: solubility, pH 4.0 Buffer
[11] = pH 7.0 buffer, pH 7, aqueous buffer, read-out: solubility, pH 7.0 Buffer
[12] = pH 9.0 buffer, pH 9, aqueous buffer, read-out: solubility, pH 9.0 Buffer
[13] = 3, 10 and 30 mg/Kg oral daily for 7 days

| Compound | IL-2 production, absolute values ([1]; compound 1 uM) [pg/mL] | IL-2 production, absolute values ([1]; compound 10 uM) [pg/mL] | DAI versus vehicle [2] | disease activity index (DAI) [3, 8] | solubility [4, 9] [µg/mL] | solubility [4, 10] [µg/mL] | solubility [4, 11] [µg/mL] | solubility [4, 12] [µg/mL] | Log10 POW, Acid [5] | Log10 POW, Basic [5] | Log10 POW, Neutral [5] | other results |
| --- | --- | --- | --- | --- | --- | --- | --- | --- | --- | --- | --- | --- |
| O=C(Nc1ccc(O)c(C(=O)O)c1)c1ccc(C[C@@]2(C3=Cc4ccccc4C3)Cc3ccccc3[C@H]2O)cc1 [Compound 47, 2-hydroxy-5-(4-(((1S,2S)-1-hydroxy-2,3-dihydro-1H,1′H-[2,2′-biinden]-2-yl)methyl)benzamido)benzoic acid] | 99.64 | 98.79 | reduced DAI comparable or equal to 5ASA |  |  |  |  |  |  |  |  | loss of body weight versus vehicle control ([2]; 47 formulated at 4 mg/ml): does not result in an increase in loss of body weight |
| O=C(O)c1ccc(C[C@]2(C3=Cc4ccccc4C3)Cc3ccccc3[C@H]2O)cc1 [Compound 5, 4-(((1S,2R)-1-hydroxy-2,3-dihydro-1H,1′H-2,2′-biinden-2-yl)methyl)benzoic acid] | 127.29 | 134.14 |  | no significant (P>0.05) effect | 1.38 (≈ 3.61 µM) | 0.33 (≈ 0.863 µM) | 320 (≈ 837 µM) | 370 (≈ 966 µM) | 3.9 | 3.7 | 3.7 | activity in 5% DSS murine colitis (DAI), in words ([3]; 30 mg/kg p.o. daily for 7 days): highly active; disease activity index (DAI) ([3]; day 7, 30 mg/kg p.o. daily for 7 days, vehicle 9.0±0.53): 3.2±0.73; aqueous solubility, in words ([4]; free acid enantiomers): limited aqueous solubility |
| NCC(=O)O[C@@H]1c2ccccc2C[C@@]1(Cc1ccc(C(=O)O)cc1)C1=Cc2ccccc2C1 [Compound 31, 4-{[(1′S,2′S)-1′-(glycyloxy)-1′,3′-dihydro-1H,2′H-2,2′-biinden-2′-yl]methyl}benzoic acid] | 233.38 | 225.63 | reduced DAI comparable or equal to 5ASA |  |  |  |  |  |  |  |  |  |
| O=C(O)c1ccc(C[C@@]2(C3=Cc4ccccc4C3)Cc3ccccc3[C@H]2O)cc1 [Compound 6] |  |  |  | 3.3±0.52 | > 60000 | 0.5 (≈ 1.31 µM) | > 60000 | > 3000 | 2.6 | 4.3 | 3.5 | colon pathology (histology score) relative to vehicle ([3]; 10 mg/Kg): highly statistically significant reduction; colon pathology (histology score) relative to vehicle ([3]; 30 mg/Kg): highly statistically significant reduction; overt reactions in mice [3, 13]: caused no overt reactions; severity of colitis, multiple parameters of disease [3, 13]: ameliorated the severity of colitis; also recorded: dose-dependent; DAI on the day of autopsy versus vehicle controls ([3]; 3-30 mg/kg, each dose level): significantly (P<0.05-P<0.01) lower; potency compared among the four enantiomers, in words ([3]; 30 and 10 mg/kg): most potent of the four enantiomers; efficacy relative to prednisolone at 5 mg/Kg ([3]; compound 6 at 30 mg/Kg): comparable, or better; also recorded: comparable or better; inhibition of colon shortening versus vehicle controls ([3]; day 7, 3 mg/kg): did not have a significant effect; inhibition of colon shortening versus vehicle controls ([3]; day 7, 10 mg/kg): did have a significant effect; colon cytokine levels (IL1β, TNFα, IL6) ([3]; day 7, 30 mg/kg): significant (P<0.05, 30 mg/kg) and dose-dependant reduction; inhibition of colon shortening versus vehicle controls ([3]; day 7, 30 mg/kg): did have a significant effect; also recorded: significantly better than Prednisolone; reduction of colonic myeloperoxidase (MPO) activity ([3]; day 7, 30 mg/kg): 63%; survival by Kaplan-Meier analysis versus vehicle ([6]; 300 mg/kg/week oral, 9 weeks): no statistical difference in survival; weight loss and deaths from colitis relative to vehicle, in words ([6]; 300 mg/kg/week oral, 9 weeks): delayed weight loss and reduced deaths from colitis; mortalities ([6]; 300 mg/kg/week oral, 9 weeks, vehicle 25%): 9.2%; weight gain maintained until ([6]; 300 mg/kg/week oral, vehicle stopped gaining from week 5): 8 week; Serum Amyloid A (SAA) levels relative to vehicle ([6]; week 9, 300 mg/kg/week oral): significantly (P<0.05; Student's t-test) reduced; extent of colon pathology (histology score) relative to vehicle ([6]; week 9, 300 mg/kg/week oral): significantly reduced; half-life [7]: 3 h |
